Assay results taken from US20240025919A1, “AZA-TETRACYCLIC OXAZEPINE COMPOUNDS AND USES THEREOF” (Genentech, Inc., priority 2022, published 2024).

Tests used:
KRAS G12D = KRAS G12D (Homo sapiens (Human), UniProt P01116, G12D); assay: KRAS G12D LoEnz Biochemical Assay, BODIPY-GDP Exchange TR-FRET (SOS1-mediated nucleotide exchange); details: read-out: KRas (G12D) GDP HTRF IC50
KRAS WT = KRAS WT (Homo sapiens (Human), UniProt P01116); assay: KRAS WT Biochemical Assay, BODIPY-GDP Exchange TR-FRET (Example 502; 0.06 nM KRAS WT, 15 nM GDP, 300 nM SOS1, 120-minute incubation); details: read-out: KRas HTRF IC50
KRAS WT, sequence (P01116-2 other isoform, or with tags, fused parts or gaps): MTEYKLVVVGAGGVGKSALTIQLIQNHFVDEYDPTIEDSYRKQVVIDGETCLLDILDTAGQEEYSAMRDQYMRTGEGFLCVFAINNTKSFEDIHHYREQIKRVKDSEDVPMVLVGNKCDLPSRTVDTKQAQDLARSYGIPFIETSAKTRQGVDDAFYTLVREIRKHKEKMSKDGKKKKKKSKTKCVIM
In short: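 IC50 from a 4-parameter Hill fit of percent inhibition, itself the TR-FRET 520/490 nm ratio scaled between DMSO and a fully inhibiting control. Reaction: 300 nM SOS1 and 300 nM BODIPY-GDP added to preformed 0.06 nM KRAS WT/15 nM GDP/Tb-streptavidin complex; 120 min incubation; pH 7.5 HEPES, MgCl2, DTT.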

KRAS G12D, sequence (P01116-2 other isoform, or with tags, fused parts or gaps G12D): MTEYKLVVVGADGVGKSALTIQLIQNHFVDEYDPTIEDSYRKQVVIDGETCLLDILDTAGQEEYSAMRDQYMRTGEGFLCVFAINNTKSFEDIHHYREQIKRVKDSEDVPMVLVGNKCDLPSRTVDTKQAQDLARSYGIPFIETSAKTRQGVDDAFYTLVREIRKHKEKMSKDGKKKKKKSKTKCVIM

SMILES | IC50 (KRAS G12D) [nM] | IC50 (KRAS WT) [nM]
C[C@@H]1Oc2nc(-c3nc(N)c(F)cc3C(F)(F)F)c(F)c3nc(OC[C@@]45CCCN4CC4(CC4(F)F)C5)nc(c23)N2C[C@H]3CC[C@H](N3)[C@@H]12 (stereo partly drawn) [Compound 86, 6-((5S,5aS,6S,9R)-12-(((7a′S)-2,2-difluorodihydro-1′H,3′H-spiro-[cyclopropane-1,2′-pyrrolizin]-7a′(5′H)-yl)methoxy)-1-fluoro-5-methyl-5a,6,7,8,9,10-hexahydro-5H-4-oxa-3,10a,11,13,14-pentaaza[6,9]methanonaphtho[1,8-ab]heptalen-2-yl)-3-fluoro-5-(trifluoromethyl)pyridin-2-amine] | 4.67 | 248
Cc1c(F)c(N)cc(-c2nc3c4c(nc(OCC5(CN6CCO[C@H](CF)C6)CC5)nc4c2F)N2C[C@H]4CC[C@H](N4)[C@H]2[C@H](C)O3)c1C(F)(F)F [Compound 171, 2-Fluoro-5-((5S,5aS,6S,9R)-1-fluoro-12-((1-(((S)-2-(fluoromethyl)morpholino)methyl)cyclopropyl)methoxy)-5-methyl-5a,6,7,8,9,10-hexahydro-5H-4-oxa-3,10a,11,13,14-pentaaza-6,9-methanonaphtho[1,8-ab]heptalen-2-yl)-3-methyl-4-(trifluoromethyl)aniline] | 0.253 | 13.7
Cc1c(F)c(N)cc(-c2nc3c4c(nc(OCC5(CN6CC7(COC7)C6)CC5)nc4c2F)N2C[C@H]4CC[C@H](N4)[C@H]2[C@H](C)O3)c1C(F)(F)F [Compound 174, 5-((5S,5aS,6S,9R)-12-((1-((2-Oxa-azaspiro[3.3]heptan-6-yl)methyl)cyclopropyl)methoxy)-1-fluoro-5-methyl-5a,6,7,8,9,10-hexahydro-5H-4-oxa-3,10a,11,13,14-pentaaza[6,9]methanonaphtho[1,8-ab]heptalene-2-yl)-2-fluoro-3-methyl-4-(trifluoromethyl)aniline] | 3.39 | 3.04
Cc1c(F)c(N)c(F)c(-c2nc3c4c(nc(OC[C@@]56CCCN5C[C@H](F)C6)nc4c2F)N2C[C@H]4CC[C@H](N4)[C@H]2[C@H](C)O3)c1CC(F)F [Compound 175, 4-(2,2-Difluoroethyl)-2,6-difluoro-3-((5S,5aS,6S,9R)-1-fluoro-12-(((2R,7aS)-2-fluorotetrahydro-1H-pyrrolizin-7a(5H)-yl)methoxy)-5-methyl-5a,6,7,8,9,10-hexahydro-5H-4-oxa-3,10a,11,13,14-pentaaza-6,9-methanonaphtho[1,8-ab]heptalen-2-yl)-5-methylaniline] | 3.39 | 108
C[C@@H]1Oc2nc(-c3c(C#N)c(N)c(F)c(F)c3C(F)(F)F)c(F)c3nc(OC[C@@]45CCCN4C[C@H](F)C5)nc(c23)N2C[C@H]3CC[C@H](N3)[C@@H]12 [Compound 107, 2-Amino-3,4-difluoro-6-((5S,5aS,6S,9R)-1-fluoro-12-(((2R,7aS)-2-fluorotetrahydro-1H-pyrrolizin-7a(5H)-yl)methoxy)-5-methyl-5a,6,7,8,9,10-hexahydro-5H-4-oxa-3,10a,11,13,14-pentaaza-6,9-methanonaphtho[1,8-ab]heptalen-2-yl)-5-(trifluoromethyl)benzonitrile] | 1.39 | 167
C[C@@H]1Oc2nc(-c3cc(N)cc4c3CCC4)c(F)c3nc(OC[C@@]45CCCN4C[C@H](F)C5)nc(c23)N2C[C@H]3CC[C@H](N3)[C@@H]12 [Compound 83, 7-((5S,5aS,6S,9R)-1-Fluoro-12-(((2R,7aS)-2-fluorotetrahydro-1H-pyrrolizin-7a(5H)-yl)methoxy)-5-methyl-5a,6,7,8,9,10-hexahydro-5H-4-oxa-3,10a,11,13,14-pentaaza-6,9-methanonaphtho[1,8-ab]heptalen-2-yl)-2,3-dihydro-1H-inden-5-amine] | 1.15 | 123
Cc1c(F)c(N)cc(-c2nc3c4c(nc(OC[C@@H](F)CN5CC(CO)(CO)C5)nc4c2F)N2C[C@H]4CC[C@H](N4)[C@H]2[C@H](C)O3)c1C(F)(F)F [Compound 146] | 0.76 | 114
Cc1c(F)c(N)cc(-c2nc3c4c(nc(OC[C@]56CCCN5C[C@H](F)[C@@H]6F)nc4c2F)N2C[C@H]4CC[C@H](N4)[C@H]2[C@H](C)O3)c1C(F)(F)F (single isomer, unassigned) [143 (isomer 1)] | 0.22 | 28.1
Cc1c(F)c(N)cc(-c2nc3c4c(nc(OCCC5(N6CCOCC6)COC5)nc4c2F)N2C[C@H]4CC[C@H](N4)[C@H]2[C@H](C)O3)c1C(F)(F)F [Compound 149, 2-Fluoro-5-((5S,5aS,6S,9R)-1-fluoro-5-methyl-12-(2-(3-morpholinooxetan-3-yl)ethoxy)-5a,6,7,8,9,10-hexahydro-5H-4-oxa-3,10a,11,13,14-pentaaza-6,9-methanonaphtho[1,8-ab]heptalen-2-yl)-3-methyl-4-(trifluoromethyl)aniline] | 18.4 | 5450
C[C@@H]1Oc2nc(-c3cccc4sc(N)nc34)c(F)c3nc(OC[C@@]45CCCN4C[C@H](F)C5)nc(c23)N2C[C@H]3CC[C@H](N3)[C@@H]12 [Compound 116, 4-((5S,5aS,6S,9R)-1-fluoro-12-(((2R,7aS)-2-fluorotetrahydro-1H-pyrrolizin-7a(5H)-yl)methoxy)-5-methyl-5a,6,7,8,9,10-hexahydro-5H-4-oxa-3,10a,11,13,14-pentaaza-6,9-methanonaphtho[1,8-ab]heptalen-2-yl)benzo[d]thiazol-2-amine] | 2.41 | 213
C[C@@H]1Oc2nc(-c3cc(N)c(F)c(F)c3C(F)(F)F)c(F)c3nc(OCC45CCN4CC(F)(F)C5)nc(c23)N2C[C@H]3CC[C@H](N3)[C@@H]12 (stereo partly drawn) [Compound 155, 5-((5S,5aS,6S,9R)-12-((3,3-difluoro-1-azabicyclo[3.2.0]heptan-5-yl)methoxy)-1-fluoro-5-methyl-5a,6,7,8,9,10-hexahydro-5H-4-oxa-3,10a,11,13,14-pentaaza-6,9-methanonaphtho[1,8-ab]heptalen-2-yl)-2,3-difluoro-4-(trifluoromethyl)aniline] | 0.22 | 31.5
Cc1c(F)c(N)cc(-c2nc3c4c(nc(OC[C@@H]5CC[C@H]6C[C@H](C(=O)N(C)C)CCN56)nc4c2F)N2C[C@H]4CC[C@H](N4)[C@H]2[C@H](C)O3)c1C(F)(F)F (single isomer, unassigned) [133 (isomer 4)] | 0.08 | 2.3
Cc1cc(N)c(F)c(-c2nc3c4c(nc(OC[C@@H]5CC[C@H]6COCCN65)nc4c2F)N2C[C@H]4CC[C@H](N4)[C@H]2[C@H](C)O3)c1C(F)(F)C(F)(F)F [Compound 100, 2-Fluoro-3-((5S,5aS,6S,9R)-1-fluoro-12-(((6S,8aS)-hexahydro-1H-pyrrolo[2,1-c][1,4]oxazin-6-yl)methoxy)-5-methyl-5a,6,7,8,9,10-hexahydro-5H-4-oxa-3,10a,11,13,14-pentaaza-6,9-methanonaphtho[1,8-ab]heptalen-2-yl)-5-methyl-4-(perfluoroethyl)aniline] | 1.49 | 495
Cc1cc(N)c(F)c(-c2nc3c4c(nc(OC[C@@]56CCCN5C[C@H](F)C6)nc4c2F)N2C[C@H]4CC[C@H](N4)[C@H]2[C@H](C)O3)c1I [Compound 108, 2-Fluoro-3-((5S,5aS,6S,9R)-1-fluoro-12-(((2R,7aS)-2-fluorotetrahydro-1H-pyrrolizin-7a(5H)-yl)methoxy)-5-methyl-5a,6,7,8,9,10-hexahydro-5H-4-oxa-3,10a,11,13,14-pentaaza-6,9-methanonaphtho[1,8-ab]heptalen-2-yl)-4-iodo-5-methylaniline] | 0.325 | 37.6
Cc1c(F)c(N)cc(-c2nc3c4c(nc(OC[C@@]5(CC(F)F)CCCN5C)nc4c2F)N2C[C@H]4CC[C@H](N4)[C@H]2[C@H](C)O3)c1C(F)(F)F (single isomer, unassigned) [150 (isomer 1)] | 0.18 | 27.5
Cc1cc(N)cc(-c2nc3c4c(nc(OC[C@]56CCN5CC(F)(F)C6)nc4c2F)N2C[C@H]4CC[C@H](N4)[C@H]2[C@H](C)O3)c1C(F)(F)F [Compound 60, 3-((5S,5aS,6S,9R)-12-(((R)-3,3-Difluoro-1-azabicyclo[3.2.0]heptan-5-yl)methoxy)-1-fluoro-5-methyl-5a,6,7,8,9,10-hexahydro-5H-4-oxa-3,10a,11,13,14-pentaaza-6,9-methanonaphtho[1,8-ab]heptalen-2-yl)-5-methyl-4-(trifluoromethyl)aniline] | 0.18 | 4.55
C[C@@H]1Oc2nc(-c3cc(N)c(F)cc3C(C)(F)F)c(F)c3nc(OC[C@@]45CCCN4C[C@H](F)C5)nc(c23)N2C[C@H]3CC[C@H](N3)[C@@H]12 [Compound 73, 4-(1,1-difluoroethyl)-2-fluoro-5-((5S,5aS,6S,9R)-1-fluoro-12-(((2R,7aS)-2-fluorotetrahydro-1H-pyrrolizin-7a(5H)-yl)methoxy)-5-methyl-5a,6,7,8,9,10-hexahydro-5H-4-oxa-3,10a,11,13,14-pentaaza-6,9-methanonaphtho[1,8-ab]heptalen-2-yl)aniline] | 2.6 | 36.3
Cc1c(F)c(N)cc(-c2nc3c4c(nc(OC[C@@H](F)CN5CC6(COC6)C5)nc4c2F)N2C[C@H]4CC[C@H](N4)[C@H]2[C@H](C)O3)c1C(F)(F)F [Compound 145] | 0.67 | 171
Cc1cc(N)cc(-c2nc3c4c(nc(OC[C@@]56CCCN5C[C@H](F)C6)nc4c2F)N2C[C@H]4CC[C@H](N4)[C@H]2[C@H](C)O3)c1Cl [Compound 74, 4-Chloro-3-((5S,5aS,6S,9R)-1-fluoro-12-(((2R,7aS)-2-fluorotetrahydro-1H-pyrrolizin-7a(5H)-yl)methoxy)-5-methyl-5a,6,7,8,9,10-hexahydro-5H-4-oxa-3,10a,11,13,14-pentaaza-6,9-methanonaphtho[1,8-ab]heptalen-2-yl)-5-methylaniline] | 0.33 | 30.8
